Measured values as given in patent US20070105864A1, “Methods for inhibiting protein kinases” (Schering Corporation, priority 2005, published 2007).

What was measured:
Cyclin E/CDK2 = target: T1, Cyclin E/CDK2 (Homo sapiens, UniProt P24941); assay: CDK2 Assay (Cyclin E/CDK2 in vitro kinase assay); assay type: biochemical; conditions: read-out: CDK2 IC50
T1 construct: made in house; host or cells: SF9 cells (baculovirus co-infection)
From the text: BACULOVIRUS CONSTRUCTIONS: Cyclin E was cloned into pVL1393 (Pharmingen, La Jolla, Calif.) by PCR, with the addition of 5 histidine residues at the amino-terminal end to allow purification on nickel resin. The expressed protein was approximately 45 kDa. CDK2 was cloned into pVL1393 by PCR, with the addition of a haemaglutinin epitope tag at the carboxy-terminal end (YDVPDYAS). The expressed protein was approximately 34 kDa in size.
ENZYME PRODUCTION: Recombinant baculoviruses expressing cyclin E and CDK2 were co-infected into SF9 cells at an equal multiplicity of infection (MOI=5), for 48 hrs. Cells were harvested by centrifugation at 1000 RPM for 10 minutes, then pellets lysed on ice for 30 minutes in five times the pellet volume of lysis buffer containing 50 mM Tris pH 8.0, 1 50 mM NaCl, 1% NP40, 1 mM DTT and protease inhibitors (Roche Diagnostics GmbH, Mannheim, Germany). Lysates were spun down at 15000 RPM for 10 minutes and the supernatant retained. 5 ml of nickel beads (for one liter of SF9 cells) were washed three times in lysis buffer (Qiagen GmbH, Germany). Imidazole was added to the baculovirus supernatant to a final concentration of 20 mM, then incubated with the nickel beads for 45 minutes at 4° C. Proteins were eluted with lysis buffer containing 250 mM imidazole. Eluate was dialyzed overnight in 2 liters of kinase buffer containing 50 mM Tris pH 8.0, 1 mM DTT, 10 mM MgCl2, 100 uM sodium orthovanadate and 20% glycerol. Enzyme was stored in aliquots at −70° C.
IN VITRO KINASE ASSAY: Cyclin E/CDK2 kinase assays were performed in low protein binding 96-well plates (Corning Inc, Corning, N.Y.). Enzyme was diluted to a final concentration of 50 μg/ml in kinase buffer containing 50 mM Tris pH 8.0, 10 mM MgCl2, 1 mM DTT, and 0.1 mM sodium orthovanadate. The substrate used in these reactions was a biotinylated peptide derived from Histone H1 (from Amersham, UK). The substrate was thawed on ice and diluted to 2 μM in kinase buffer. Compounds were diluted in 10% DMSO to desirable concentrations. For each kinase reaction, 20 μl of the 50 µg/ml enzyme solution (1 μg of enzyme) and 20 μl of the 2 μM substrate solution were mixed, then combined with 10 μl of diluted compound in each well for testing. The kinase reaction was started by addition of 50 μl of 2 μM ATP and 0.1 μCi of 33P-ATP (from Amersham, UK). The reaction was allowed to run for 1 hour at room temperature. The reaction was stopped by adding 200 μl of stop buffer containing 0.1% Triton X-100, 1 mM ATP, 5 mM EDTA, and 5 mg/ml streptavidine coated SPA beads (from Amersham, UK) for 15 minutes. The SPA beads were then captured onto a 96-well GF/B filter plate (Packard/Perkin Elmer Life Sciences) using a Filtermate universal harvester (Packard/Perkin Elmer Life Sciences.). Non-specific signals were eliminated by washing the beads twice with 2M NaCl then twice with 2 M NaCl with 1% phosphoric acid. The radioactive signal was then measured using a TopCount 96 well liquid scintillation counter (from Packard/Perkin Elmer Life Sciences).
(§1) IC50 DETERMINATIONS: Dose-response curves were plotted from inhibition data generated, each in duplicate, from 8 point serial dilutions of inhibitory compounds. Concentration of compound was plotted against % kinase activity, calculated by CPM of treated samples divided by CPM of untreated samples. To generate IC50 values, the dose-response curves were then fitted to a standard sigmoidal curve and IC50 values were derived by nonlinear regression analysis.

recombinant His-CHK1 = target: T2, recombinant His-CHK1 (Homo sapiens, UniProt O14757); assay: CHK1 SPA Assay; assay type: biochemical; conditions: read-out: CHK-1 IC50
T2 construct: His-CHK1, In House Lot P976, MW ˜30 KDa, stored at −80 °C; fused on or other part: His tag
T2 sequence (O14757 1-265 limits assumed): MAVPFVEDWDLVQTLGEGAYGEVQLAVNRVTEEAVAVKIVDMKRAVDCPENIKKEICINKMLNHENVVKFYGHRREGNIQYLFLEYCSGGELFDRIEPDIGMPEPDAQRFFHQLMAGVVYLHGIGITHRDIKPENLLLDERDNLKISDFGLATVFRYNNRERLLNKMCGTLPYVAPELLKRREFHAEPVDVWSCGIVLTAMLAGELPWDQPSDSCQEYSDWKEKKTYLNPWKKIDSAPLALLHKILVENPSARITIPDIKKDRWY
Procedure: An in vitro assay was developed that utilizes recombinant His-CHK1 expressed in the baculovirus expression system as an enzyme source and a biotinylated peptide based on CDC25C as substrate (biotin-[…]).
1) CDC25C Ser 216 C-term Biotinylated peptide substrate (25 mg), stored at −20 °C, Custom Synthesis by Research Genetics: biotin-[…] 2595.4 MW
2) His-CHK1 In House lot P976, 235 ug/mL, stored at −80 °C.
1) Kinase Buffer: 50 mM Tris pH 8.0; 10 mM MgCl2; 1 mM DTT
2) His-CHK1, In House Lot P976, MW ˜30 KDa, stored at −80 °C. […] For 1 plate (100 r×n): dilute 8 μL of 235 μg/mL (7.83 uM) stock in 2 mL Kinase Buffer. This makes a 31 nM mixture. Add 20 μL/well. This makes a final reaction concentration of 6 nM.
3) CDC25C Biotinylated peptide.
Dilute CDC25C to 1 mg/mL (385 uM) stock and store at −20° C. For 1 plate (100 r×n): dilute 10 1L of 1 mg/mL peptide stock in 2 ml Kinase Buffer. This gives a 1.925 μM mix. Add 20 1L/r×n. This makes a final reaction concentration of 385 nM.
For 1 plate (100 r×n): dilute 10 μL of 1 mM ATP (cold) stock and 2 uL fresh P33-ATP (20 μCi) in 5 ml Kinase Buffer. This gives a 2 μM ATP (cold) solution; add 50 μl/well to start the reaction. Final volume is 100 μl/r×n so the final reaction concentrations will be 1 μM ATP (cold) and 0.2 uCi/r×n.
For 1 plate add: To 10 mL Wash Buffer 2 (2M NaCl 1% H3PO4): 1 mL SPA bead slurry (50 mg); Add 100 μL/well
6) Wash buffer 1: 2 M NaCl
7) Wash buffer 2: 2 M NaCl, 1% H3PO4
Dispense 10 μl/r×n to appropriate wells. Add 10 μL 10% DMSO to positive (CHK1+CDC25C+ATP) and negative (CHK1+ATP only) control wells. 2) Thaw enzyme on ice—dilute enzyme to proper concentration in kinase buffer (see Reaction Mixtures) and dispense 20 μl to each well. 3) Thaw the Biotinylated substrate on ice and dilute in kinase buffer (see Reaction Mixtures). Add 20 μL/well except to negative control wells. Instead, add 20 uL Kinase Buffer to these wells. 4) Dilute ATP (cold) and P33-ATP in kinase buffer (see Reaction Mixtures). Add 50 μL/well to start the reaction. 5) Allow the reaction to run for 2 hours at room temperature. 6) Stop reaction by adding 100 uL of the SPA beads/stop solution (see Reaction Mixtures) and leave to incubate for 15 minutes before harvest 7) Place a blank Packard GF/B filter plate into the vacuum filter device (Packard plate harvester) and aspirate […] water through to wet the system. 8) Take out the blank and put in the Packard GF/B filter plate. 9) Aspirate the reaction through the filter plate. 10) Wash: 200 ml each wash; 1× with 2M NaCl; 1× with 2M NaCl/1% H3PO4 11) Allow filter plate to dry 15 min. 12) Put TopSeal-A adhesive on top of filter plate. 13) Run filter plate in Top Count
Settings: • Data mode: CPM • Radio nuclide: Manual SPA:P33 • Scintillator: Liq/plast • Energy Range: Low
as §1

| Compound | IC50 (Cyclin E/CDK2) | IC50 (recombinant His-CHK1) |
| --- | --- | --- |
| Cc1cc(Nc2nc(CC3CCNC3)cn3c(-c4cnn(C)c4)cnc23)sn1 (stereo not shown) | 607 nM | 7 nM |
| Cc1cc(Nc2nc(CC3CCNC3)cn3c(-c4cnn(C)c4)cnc23)sc1S(=O)(=O)N(C)C (stereo not shown) | 983 nM | 8 nM |
| Cc1ncc(Nc2nc(C3=CCCNC3)cn3c(-c4cnn(C)c4)cnc23)s1 | 4630 nM | 8 nM |
| Cc1cc(Nc2nc(C3=CCCNC3)cn3c(-c4cnn(C)c4)cnc23)sc1S(=O)(=O)N(C)C1CC1 | 13100 nM | 18 nM |
| Cn1cc(-c2cnc3c(Nc4ccc(-n5ccnc5)cc4)nc(C4=CCCNC4)cn23)cn1 [drawing 1440] | 12500 nM | 97 nM |
| Cn1cc(-c2cnc3c(Nc4ccc(-n5ccnc5)cc4)nc(C4=CCCNC4)cn23)cn1 [drawing 1445] | 12500 nM | 97 nM |
| Cc1cc(Nc2nc(C3=CCCNC3)cn3c(-c4cnn(C)c4)cnc23)sc1S(=O)(=O)NC1CC1 [drawing 1469] | 1580 nM | 3 nM |
| Cc1cc(Nc2nc(C3=CCCNC3)cn3c(-c4cnn(C)c4)cnc23)sc1S(=O)(=O)NC1CC1 [drawing 1473] | 3210 nM | 7 nM |
